The results in this text go back to ChEMBL document CHEMBL5678818, “Discovery of potent SOS1 inhibitors that block RAS activation via disruption of the RAS-SOS1 interaction” (Proc Natl Acad Sci U S A, 2019).

For assay [1], the target named is Cyclin-dependent kinase 13 (Homo sapiens) (UniProt Q14004). As to the kind of experiment: Inhibition of CDC2L5 (unknown origin) assessed as residual activity at 100 nM by KINOMEscan analysis relative to control.
Assay [2] relates to Epidermal growth factor receptor (Homo sapiens), P00533 [T790M]. As to the kind of experiment: Inhibition of EGFR T790M mutant (unknown origin) assessed as residual activity at 100 nM by KINOMEscan analysis relative to control.
In assay [3] the target is Mitogen-activated protein kinase 4 (Homo sapiens) (UniProt P31152). As to the kind of experiment: Inhibition of ERK4 (unknown origin) assessed as residual activity at 100 nM by KINOMEscan analysis relative to control.
The target in assay [4] is Serine/threonine-protein kinase/endoribonuclease IRE1 (Homo sapiens) (UniProt O75460). As to the kind of experiment: Inhibition of ERN1 (unknown origin) assessed as residual activity at 100 nM by KINOMEscan analysis relative to control.
Chain of Serine/threonine-protein kinase/endoribonuclease IRE1 (Homo sapiens) (O75460 19-977 limits assumed): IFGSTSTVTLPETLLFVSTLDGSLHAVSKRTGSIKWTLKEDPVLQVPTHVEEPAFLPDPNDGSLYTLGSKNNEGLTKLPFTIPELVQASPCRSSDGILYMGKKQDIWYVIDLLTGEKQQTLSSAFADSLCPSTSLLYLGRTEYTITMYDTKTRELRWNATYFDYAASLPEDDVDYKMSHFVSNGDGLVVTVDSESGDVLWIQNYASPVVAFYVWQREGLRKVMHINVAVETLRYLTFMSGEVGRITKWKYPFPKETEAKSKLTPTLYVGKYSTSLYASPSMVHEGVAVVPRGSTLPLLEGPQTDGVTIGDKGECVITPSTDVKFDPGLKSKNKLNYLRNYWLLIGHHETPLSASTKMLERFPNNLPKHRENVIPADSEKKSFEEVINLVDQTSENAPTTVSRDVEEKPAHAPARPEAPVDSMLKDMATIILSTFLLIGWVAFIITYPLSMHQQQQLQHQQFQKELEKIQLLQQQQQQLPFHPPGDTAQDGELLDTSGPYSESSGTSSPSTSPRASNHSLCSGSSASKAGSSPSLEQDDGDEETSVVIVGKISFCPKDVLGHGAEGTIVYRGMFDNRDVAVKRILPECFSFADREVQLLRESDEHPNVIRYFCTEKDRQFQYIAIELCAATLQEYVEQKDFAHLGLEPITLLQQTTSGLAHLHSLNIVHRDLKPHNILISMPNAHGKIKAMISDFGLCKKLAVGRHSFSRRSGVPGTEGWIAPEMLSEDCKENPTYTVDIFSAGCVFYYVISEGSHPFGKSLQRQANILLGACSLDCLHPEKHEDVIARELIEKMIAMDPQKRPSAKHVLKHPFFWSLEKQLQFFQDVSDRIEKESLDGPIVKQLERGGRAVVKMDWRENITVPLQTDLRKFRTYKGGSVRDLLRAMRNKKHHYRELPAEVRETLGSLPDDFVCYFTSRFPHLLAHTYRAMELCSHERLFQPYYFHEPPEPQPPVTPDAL
In assay [5] the target is Focal adhesion kinase 1 (Homo sapiens) (UniProt Q05397). As to the kind of experiment: Inhibition of FAK (unknown origin) assessed as residual activity at 100 nM by KINOMEscan analysis relative to control.
Chain of Focal adhesion kinase 1 (Homo sapiens) (Q05397 2-1052 limits assumed): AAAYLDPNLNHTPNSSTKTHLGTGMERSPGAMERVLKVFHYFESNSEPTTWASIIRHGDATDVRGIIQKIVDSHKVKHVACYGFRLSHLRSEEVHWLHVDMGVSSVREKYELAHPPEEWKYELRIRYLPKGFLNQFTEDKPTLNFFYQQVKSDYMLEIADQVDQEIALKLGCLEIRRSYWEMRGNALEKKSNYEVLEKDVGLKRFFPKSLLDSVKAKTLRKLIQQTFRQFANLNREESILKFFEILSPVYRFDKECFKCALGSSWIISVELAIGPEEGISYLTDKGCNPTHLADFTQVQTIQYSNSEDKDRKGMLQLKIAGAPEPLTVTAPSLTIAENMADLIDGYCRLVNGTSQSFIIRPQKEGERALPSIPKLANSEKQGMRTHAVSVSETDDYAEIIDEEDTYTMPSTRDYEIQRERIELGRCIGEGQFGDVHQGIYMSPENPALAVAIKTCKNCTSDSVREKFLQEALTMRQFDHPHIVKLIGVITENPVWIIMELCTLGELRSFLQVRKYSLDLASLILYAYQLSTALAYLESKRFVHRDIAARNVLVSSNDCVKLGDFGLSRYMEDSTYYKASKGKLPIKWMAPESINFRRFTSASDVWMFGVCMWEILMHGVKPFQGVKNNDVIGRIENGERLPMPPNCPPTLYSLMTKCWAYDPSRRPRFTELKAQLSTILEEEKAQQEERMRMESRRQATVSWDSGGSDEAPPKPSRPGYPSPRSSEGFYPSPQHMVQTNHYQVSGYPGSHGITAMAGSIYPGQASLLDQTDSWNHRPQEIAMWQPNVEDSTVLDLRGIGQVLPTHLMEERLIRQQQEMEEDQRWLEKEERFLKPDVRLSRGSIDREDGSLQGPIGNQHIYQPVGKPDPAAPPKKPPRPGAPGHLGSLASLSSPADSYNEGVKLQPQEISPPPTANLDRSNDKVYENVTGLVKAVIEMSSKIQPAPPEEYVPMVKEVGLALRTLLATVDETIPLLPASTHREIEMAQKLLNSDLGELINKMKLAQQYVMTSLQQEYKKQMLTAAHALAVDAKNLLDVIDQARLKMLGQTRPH
The target in assay [6] is Tyrosine-protein kinase JAK1 (Homo sapiens) (UniProt P23458). As to the kind of experiment: Inhibition of JAK1 JH2 pseudokinase domain (unknown origin) assessed as residual activity at 100 nM by KINOMEscan analysis relative to control.
Assay [7] deals with T1, Mitogen-activated protein kinase kinase kinase kinase 2 (Homo sapiens) (UniProt Q12851).
T1 sequence (whole entry): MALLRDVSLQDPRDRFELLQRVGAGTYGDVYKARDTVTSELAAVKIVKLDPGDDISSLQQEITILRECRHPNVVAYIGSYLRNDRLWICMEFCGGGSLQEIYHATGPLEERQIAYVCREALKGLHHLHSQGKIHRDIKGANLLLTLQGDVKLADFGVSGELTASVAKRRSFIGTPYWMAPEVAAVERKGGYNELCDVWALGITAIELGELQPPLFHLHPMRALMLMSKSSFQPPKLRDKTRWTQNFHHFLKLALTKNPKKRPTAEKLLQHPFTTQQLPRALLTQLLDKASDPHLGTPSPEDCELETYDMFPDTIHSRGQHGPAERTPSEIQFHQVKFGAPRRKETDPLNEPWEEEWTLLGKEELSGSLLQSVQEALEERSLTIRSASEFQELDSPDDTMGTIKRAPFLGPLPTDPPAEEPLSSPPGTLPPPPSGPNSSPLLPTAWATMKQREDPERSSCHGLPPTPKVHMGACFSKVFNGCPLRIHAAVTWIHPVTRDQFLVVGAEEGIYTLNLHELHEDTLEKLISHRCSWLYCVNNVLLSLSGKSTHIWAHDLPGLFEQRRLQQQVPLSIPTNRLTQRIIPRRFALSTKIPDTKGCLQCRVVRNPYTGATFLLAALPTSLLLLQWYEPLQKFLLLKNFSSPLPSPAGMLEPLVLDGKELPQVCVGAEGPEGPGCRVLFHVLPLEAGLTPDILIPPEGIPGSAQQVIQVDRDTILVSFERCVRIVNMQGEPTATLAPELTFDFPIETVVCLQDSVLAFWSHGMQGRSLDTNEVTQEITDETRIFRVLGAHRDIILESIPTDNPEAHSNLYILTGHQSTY
As to the kind of experiment: Inhibition of MAP4K2 (unknown origin) assessed as residual activity at 100 nM by KINOMEscan analysis relative to control.

The subject of assay [8] is Phosphatidylinositol 4,5-bisphosphate 3-kinase catalytic subunit alpha isoform (Homo sapiens), P42336 [M1043I]. As to the kind of experiment: Inhibition of PIK3CA M1043I mutant (unknown origin) assessed as residual activity at 100 nM by KINOMEscan analysis relative to control.
The target of assay [9] is T2, Receptor-interacting serine/threonine-protein kinase 1 (Homo sapiens) (UniProt Q13546).
T2 sequence (whole entry): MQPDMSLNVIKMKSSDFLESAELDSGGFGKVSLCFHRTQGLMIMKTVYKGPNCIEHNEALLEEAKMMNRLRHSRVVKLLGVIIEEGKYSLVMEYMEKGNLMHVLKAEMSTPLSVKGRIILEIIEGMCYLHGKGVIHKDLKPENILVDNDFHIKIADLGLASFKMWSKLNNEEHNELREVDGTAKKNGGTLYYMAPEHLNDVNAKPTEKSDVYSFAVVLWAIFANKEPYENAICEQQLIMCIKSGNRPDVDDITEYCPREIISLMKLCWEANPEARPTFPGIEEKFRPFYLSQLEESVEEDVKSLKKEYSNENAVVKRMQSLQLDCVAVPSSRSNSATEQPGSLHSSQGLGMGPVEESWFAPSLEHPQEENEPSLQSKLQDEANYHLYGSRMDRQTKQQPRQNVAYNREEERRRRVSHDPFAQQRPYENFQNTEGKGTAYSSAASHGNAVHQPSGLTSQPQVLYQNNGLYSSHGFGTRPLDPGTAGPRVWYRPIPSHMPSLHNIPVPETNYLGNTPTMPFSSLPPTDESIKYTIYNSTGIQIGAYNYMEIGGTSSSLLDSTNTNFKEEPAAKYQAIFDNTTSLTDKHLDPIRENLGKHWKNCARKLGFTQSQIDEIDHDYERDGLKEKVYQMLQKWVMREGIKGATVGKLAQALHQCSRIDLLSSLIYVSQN
As to the kind of experiment: Inhibition of RIPK1 (unknown origin) assessed as residual activity at 100 nM by KINOMEscan analysis relative to control.

The target of assay [10] is Mitogen-activated protein kinase kinase kinase 12 (Homo sapiens) (UniProt Q12852). As to the kind of experiment: Inhibition of DLK (unknown origin) assessed as residual activity at 100 nM by KINOMEscan analysis relative to control.

Chain of Phosphatidylinositol 4,5-bisphosphate 3-kinase catalytic subunit alpha isoform (Homo sapiens), P42336 [M1043I] (P42336 whole entry M1043I, canonical isoform): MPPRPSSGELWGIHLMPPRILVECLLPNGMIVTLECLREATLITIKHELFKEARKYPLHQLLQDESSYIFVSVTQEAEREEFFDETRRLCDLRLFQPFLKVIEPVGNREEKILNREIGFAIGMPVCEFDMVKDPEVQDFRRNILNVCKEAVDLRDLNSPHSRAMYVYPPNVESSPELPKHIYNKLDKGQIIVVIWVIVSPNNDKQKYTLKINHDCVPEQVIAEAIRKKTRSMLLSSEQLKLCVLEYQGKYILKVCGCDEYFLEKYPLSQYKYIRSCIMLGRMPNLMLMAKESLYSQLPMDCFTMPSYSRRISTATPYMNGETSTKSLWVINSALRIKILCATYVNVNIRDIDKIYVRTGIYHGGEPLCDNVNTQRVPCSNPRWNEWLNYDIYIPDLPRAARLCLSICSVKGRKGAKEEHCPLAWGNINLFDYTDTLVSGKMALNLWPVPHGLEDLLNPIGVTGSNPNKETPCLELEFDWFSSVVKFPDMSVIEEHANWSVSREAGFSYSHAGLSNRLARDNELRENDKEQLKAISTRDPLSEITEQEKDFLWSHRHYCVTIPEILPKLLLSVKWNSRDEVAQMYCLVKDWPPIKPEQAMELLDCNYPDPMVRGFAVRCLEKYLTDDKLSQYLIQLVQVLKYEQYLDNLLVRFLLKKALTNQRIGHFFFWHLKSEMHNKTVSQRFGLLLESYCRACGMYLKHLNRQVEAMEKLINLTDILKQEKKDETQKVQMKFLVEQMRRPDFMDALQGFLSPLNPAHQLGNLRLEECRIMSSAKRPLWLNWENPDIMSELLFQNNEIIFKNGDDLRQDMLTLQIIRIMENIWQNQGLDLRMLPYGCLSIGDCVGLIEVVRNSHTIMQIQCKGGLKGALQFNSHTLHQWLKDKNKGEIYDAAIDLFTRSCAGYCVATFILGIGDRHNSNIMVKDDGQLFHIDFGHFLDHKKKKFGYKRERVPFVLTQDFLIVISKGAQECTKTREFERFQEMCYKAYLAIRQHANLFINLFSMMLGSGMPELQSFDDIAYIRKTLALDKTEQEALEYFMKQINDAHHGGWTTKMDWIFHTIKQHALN
Chain of Cyclin-dependent kinase 13 (Homo sapiens) (Q14004 whole entry, looked up): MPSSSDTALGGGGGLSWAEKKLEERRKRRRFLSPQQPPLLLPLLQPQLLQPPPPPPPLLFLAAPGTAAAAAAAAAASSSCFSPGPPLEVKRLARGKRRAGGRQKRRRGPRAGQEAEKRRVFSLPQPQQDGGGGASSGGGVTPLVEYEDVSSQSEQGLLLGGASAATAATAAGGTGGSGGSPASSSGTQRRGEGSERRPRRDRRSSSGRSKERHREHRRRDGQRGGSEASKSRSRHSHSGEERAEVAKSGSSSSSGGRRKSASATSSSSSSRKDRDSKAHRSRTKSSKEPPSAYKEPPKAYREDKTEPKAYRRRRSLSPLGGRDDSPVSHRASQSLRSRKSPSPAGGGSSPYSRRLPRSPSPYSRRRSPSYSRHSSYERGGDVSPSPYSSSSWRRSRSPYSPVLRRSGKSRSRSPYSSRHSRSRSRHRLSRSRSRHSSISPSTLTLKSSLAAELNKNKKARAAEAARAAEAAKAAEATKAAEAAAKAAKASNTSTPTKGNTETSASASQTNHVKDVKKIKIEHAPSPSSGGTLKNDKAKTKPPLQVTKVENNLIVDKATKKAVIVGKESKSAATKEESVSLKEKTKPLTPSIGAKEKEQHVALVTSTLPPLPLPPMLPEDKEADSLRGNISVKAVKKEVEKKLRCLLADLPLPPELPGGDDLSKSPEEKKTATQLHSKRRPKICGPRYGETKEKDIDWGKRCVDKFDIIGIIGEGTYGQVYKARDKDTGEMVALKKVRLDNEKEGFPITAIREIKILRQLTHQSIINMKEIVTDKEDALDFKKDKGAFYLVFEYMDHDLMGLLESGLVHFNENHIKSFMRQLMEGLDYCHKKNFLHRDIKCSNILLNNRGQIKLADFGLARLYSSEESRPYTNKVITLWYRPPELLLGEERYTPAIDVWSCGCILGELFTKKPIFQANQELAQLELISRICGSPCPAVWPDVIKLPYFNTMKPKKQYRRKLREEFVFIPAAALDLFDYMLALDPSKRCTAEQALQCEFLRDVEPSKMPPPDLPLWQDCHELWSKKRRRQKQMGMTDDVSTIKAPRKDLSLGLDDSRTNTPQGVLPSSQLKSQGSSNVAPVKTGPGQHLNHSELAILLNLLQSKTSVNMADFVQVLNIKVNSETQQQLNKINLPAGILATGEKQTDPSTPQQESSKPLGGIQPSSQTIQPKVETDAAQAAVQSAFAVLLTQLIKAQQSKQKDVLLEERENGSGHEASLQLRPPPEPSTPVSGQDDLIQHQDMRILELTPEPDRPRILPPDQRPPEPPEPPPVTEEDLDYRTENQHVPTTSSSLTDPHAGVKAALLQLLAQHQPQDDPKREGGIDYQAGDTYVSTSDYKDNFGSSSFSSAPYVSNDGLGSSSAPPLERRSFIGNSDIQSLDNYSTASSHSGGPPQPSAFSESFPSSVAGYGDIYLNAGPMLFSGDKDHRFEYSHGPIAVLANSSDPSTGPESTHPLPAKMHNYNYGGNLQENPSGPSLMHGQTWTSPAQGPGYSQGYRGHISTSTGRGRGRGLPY

Turning to `COc1cc2ncnc(N[C@H](C)c3cccc4ccccc34)c2cc1OC`, the Activity in assay [1] was determined as 92%; in [2], 96%; in [3], 100%; in [4] it was 96%; in [5], 100%; in assay [6], 100%. The Activity in [7] is 83%; in [8] it was 89%; in assay [9] it was 23%; in [10] it was 89%.
